# From patent publication US8163718B2, “Nucleoside analogues containing phosphonate or phosphonamide groups” (Gilead Sciences, Inc., priority 2008, dated 2012)
# What was measured:
# Assay in all cases: Cytostatic cell culture assay (GI50), SRB
# Assay type in all cases: cell-based
# Hs-578 = settings: Hs578, 120 h; 5 days incubation
# Text: (§1) The assay is based on quantification of cell counts by a colorimetric detection of the cell associated proteins. The assay relies on the ability of sulforhodamine B (SRB) to bind to protein components of cells that have been fixed to tissue-culture plates by trichloroacetic acid (TCA). SRB is a bright-pink aminoxanthene dye with two sulfonic groups that bind to basic amino-acid residues under mild acidic conditions, and dissociate under basic conditions. As the binding of SRB is stoichiometric, the amount of dye extracted from stained cells is directly proportional to the cell mass.
# (§2) Cell lines: All cell lines were obtained from ATCC (Manassas, Va.). Cultivation media containing Glutamax, and trypsin were purchased from Invitrogen (Carlsbad, Calif.). Doxorubicin, Clofarabine, TCA and SRB were from Sigma-Aldrich (St. Louis, Mo.). Gemcitabine was obtained from Moravek Biochemicals (Brea, Calif.)
# (§3) • 1. Trypsinize the sub-confluent cells, count them, and adjust the cell concentrations according to the cell counts listed in Table 1. • 2. Distribute the cells into the 96-well plates in 150 μL of media. Incubate the plates overnight in humidified CO2 incubator at 37° C. • 3. Fix one plate of each cell line with TCA. Discard the cultivation media from the plates by flicking them gently and add 100 ul cold 10% (vol/vol) TCA to each well. Incubate the plates at 4 degree refrigerator for 1 hour. Discard TCA from the plates by flicking them gently. Rinse plates four times in a washing basin containing tap water. Store the plates at room temperature. These plates represent cell counts on day zero. • 4. Prepare a set of medium solutions containing various concentrations of tested compounds by making 5-fold serial dilutions in 96-well plate. Add 50 μL of the diluted compounds per well. Include controls with untreated cells and cells treated with doxorubicin, clofarabine and gemcitabine. • 5. Incubate the plates for 5 days at 37° C. • 6. Fix the plates with TCA. Discard the cultivation media from the plates by flicking them gently and add 100 ul cold 10% (vol/vol) TCA to each well. Incubate the plates at 4 degree refrigerator for 1 hour. Discard TCA from the plates by flicking them gently. Rinse plates four times in a washing basin containing tap water. • 7. Remove excess water by tapping the plates face down, gently on a paper towel. Allow the plates to air-dry at room temperature. • 8. Add 100 ul of 0.057% SRB solution in 1% (vol/vol) acetic acid to each well of the plates fixed with TCA on day zero and five. Leave at room temperature for 30 minutes. • 9. Flick the plates gently to discard SRB. Rinse the plates four times with 1% (vol/vol) Acetic Acid. • 10. Store the plates at 37 degree incubator to facilitate faster drying. • 11. Once the plates are completely dry, add 200 ul of 10 mM Tris base solution (pH 10.5) to each well. Leave at room temperature for 30 minutes for SRB to solubilize. • 12. Measure the OD at 500 nm in a microplate reader • 13. Calculate the percentage of cell-growth inhibition using the next formula: % of control cell growth=100×(ODsample−mean ODday0)/(ODneg control−mean ODday0)
# (§4) For GI50 determination, plot a dose-response curve between the compound concentration and percent of growth inhibition. GI50 values can be derived by fitting dose-response curves using sigmoidal dose response equation.
# BT-549 = settings: Homo sapiens, BT-549, 120 h; 5 days incubation
# Text: as §1, §2, §3, §4
# HCT-116 = settings: Homo sapiens, HCT-116, 120 h; 5 days incubation
# Text: as §1, §2, §3, §4
# Du-145 = settings: Homo sapiens, DU-145, 120 h; 5 days incubation
# Text: as §1, §2, §3, §4
# PC3 = settings: Homo sapiens, PC-3, 120 h; 5 days incubation
# Text: as §1, §2, §3, §4
# HCT-15 = settings: Homo sapiens, HCT-15, 120 h; 5 days incubation
# Text: as §1, §2, §3, §4
# A549 = settings: Homo sapiens, A549, 120 h; 5 days incubation
# Text: as §1, §2, §3, §4
# NCI-H23 = settings: Homo sapiens, NCI-H23, 120 h; 5 days incubation
# Text: as §1, §2, §3, §4
SMILES,GI50 (Hs-578),GI50 (BT-549),GI50 (HCT-116),GI50 (Du-145),GI50 (PC3),GI50 (HCT-15),GI50 (A549),GI50 (NCI-H23)
CCCOc1nc(N)nc2c1ncn2CCOCP(=O)(N[C@@H](C)C(=O)OC(C)C)N[C@@H](C)C(=O)OC(C)C [Example 16],870 nM,1830 nM,1320 nM,67 nM,591 nM,> 10000 nM,736 nM,92 nM
CCCCOC(=O)[C@H](Cc1ccccc1)NP(=O)(COCCn1cnc2c(OCCC)nc(N)nc21)N[C@@H](Cc1ccccc1)C(=O)OCCCC [Example 17],5 nM,17 nM,4 nM,1 nM,6 nM,336 nM,5 nM,2 nM
CCCOc1nc(N)nc2c1ncn2CCOCP(=O)(N[C@H](C)C(=O)OC)N[C@H](C)C(=O)OC [Example 18],9100 nM,7600 nM,9000 nM,1280 nM,5400 nM,24000 nM,9900 nM,2330 nM
CCCOc1nc(N)nc2c1ncn2CCOCP(=O)(N[C@@H](Cc1ccccc1)C(=O)OCC(C)C)N[C@@H](Cc1ccccc1)C(=O)OCC(C)C [Example 19],5 nM,53 nM,5 nM,1 nM,10 nM,467 nM,4 nM,1 nM
CCCOc1nc(N)nc2c1ncn2CCOCP(=O)(N1CCC[C@H]1C(=O)OCc1ccccc1)N1CCC[C@H]1C(=O)OCc1ccccc1 [Example 20],132 nM,167 nM,264 nM,27 nM,111 nM,2350 nM,530 nM,30 nM
CCCOc1nc(N)nc2c1ncn2CCOCP(=O)(N1CCC[C@H]1C(=O)OC)N1CCC[C@H]1C(=O)OC [Example 22],82 nM,116 nM,194 nM,35 nM,121 nM,> 10000 nM,640 nM,38 nM
CCCOC(=O)[C@@H]1CCCN1P(=O)(COCCn1cnc2c(OCCC)nc(N)nc21)N1CCC[C@H]1C(=O)OCCC [Example 23],4 nM,7 nM,28 nM,1 nM,11 nM,2470 nM,317 nM,3 nM
CCCOc1nc(N)nc2c1ncn2CCOCP(=O)(N1CCC[C@H]1C(=O)OC(C)C)N1CCC[C@H]1C(=O)OC(C)C [Example 24],452 nM,386 nM,979 nM,138 nM,634 nM,> 10000 nM,3820 nM,124 nM
CCCCOC(=O)[C@@H]1CCCN1P(=O)(COCCn1cnc2c(OCCC)nc(N)nc21)N1CCC[C@H]1C(=O)OCCCC [Example 25],8 nM,15 nM,43 nM,2 nM,16 nM,1490 nM,450 nM,2 nM
CCCCCCOC(=O)[C@@H]1CCCN1P(=O)(COCCn1cnc2c(OCCC)nc(N)nc21)N1CCC[C@H]1C(=O)OCCCCCC [Example 26],97 nM,67 nM,119 nM,2 nM,81 nM,1950 nM,1050 nM,9 nM
CCCCOC(=O)[C@H](C)NP(=O)(COCCn1cnc2c(OC)nc(N)nc21)N[C@@H](C)C(=O)OCCCC [Example 27],53 nM,33 nM,23 nM,2 nM,13 nM,2370 nM,26 nM,4 nM
CCOC(=O)[C@H](C)NP(=O)(COCCn1cnc2c(OC)nc(N)nc21)N[C@@H](C)C(=O)OCC [Example 28],380 nM,573 nM,859 nM,47 nM,381 nM,> 10000 nM,736 nM,28 nM
COc1nc(N)nc2c1ncn2CCOCP(=O)(N[C@@H](C)C(=O)OC(C)C)N[C@@H](C)C(=O)OC(C)C [Example 29],378 nM,1110 nM,988 nM,29 nM,325 nM,> 10000 nM,387 nM,32 nM
CCOC(=O)[C@H](Cc1ccccc1)NP(=O)(COCCn1cnc2c(OC)nc(N)nc21)N[C@@H](Cc1ccccc1)C(=O)OCC [Example 30],17 nM,23 nM,27 nM,3 nM,103 nM,1900 nM,36 nM,10 nM
CCCCOC(=O)[C@H](Cc1ccccc1)NP(=O)(COCCn1cnc2c(OC)nc(N)nc21)N[C@@H](Cc1ccccc1)C(=O)OCCCC [Example 31],5 nM,20 nM,6 nM,1 nM,16 nM,604 nM,6 nM,2 nM
COC(=O)[C@@H](C)NP(=O)(COCCn1cnc2c(OC)nc(N)nc21)N[C@H](C)C(=O)OC [Example 32],6600 nM,> 10000 nM,22000 nM,1490 nM,8000 nM,> 10000 nM,11000 nM,2620 nM
CCOC(=O)[C@H](C)NP(=O)(COCCn1cnc2c(OC(C)C)nc(N)nc21)N[C@@H](C)C(=O)OCC [Example 33],243 nM,423 nM,652 nM,18 nM,190 nM,> 10000 nM,762 nM,19 nM
CCCCOC(=O)[C@H](C)NP(=O)(COCCn1cnc2c(OC(C)C)nc(N)nc21)N[C@@H](C)C(=O)OCCCC [Example 34],31 nM,195 nM,55 nM,4 nM,21 nM,2650 nM,41 nM,5 nM
CCCCOc1nc(N)nc2c1ncn2CCOCP(=O)(N[C@@H](C)C(=O)OCC)N[C@@H](C)C(=O)OCC [Example 35],46 nM,145 nM,140 nM,5 nM,28 nM,8900 nM,187 nM,14 nM
CCOC(=O)[C@H](C)NP(=O)(COCCn1cnc2c(OCC)nc(N)nc21)N[C@@H](C)C(=O)OCC [Example 37],198 nM,292 nM,509 nM,23 nM,146 nM,> 10000 nM,458 nM,31 nM
CCCCOC(=O)[C@H](C)NP(=O)(COCCn1cnc2c(OCC)nc(N)nc21)N[C@@H](C)C(=O)OCCCC [Example 38],20 nM,53 nM,12 nM,1 nM,2 nM,799 nM,17 nM,2 nM
CCOC(=O)[C@H](C)NP(=O)(COCCn1cnc2c(OC3CCCCC3)nc(N)nc21)N[C@@H](C)C(=O)OCC [Example 39],697 nM,2650 nM,1480 nM,102 nM,141 nM,> 10000 nM,3190 nM,198 nM
